Measured values taken from US20150087610A1, “Method of Modifying Fertility” (Monell Chemical Senses Center, priority 2012, published 2015).
Entries after “also recorded” stand apart in the source; their conditions may differ.

Tests used:
[1] = test system: sperm isolated from the Gnat3−/−mutant mice; experiment: Calcium imaging of sperm from Gnat3−/− mutant mice; format: cell-based, mouse; settings: 2 mM
Experimental: (§1) Eight adult male mice of each genotype: C57BL/6 and Gnat^−/− mice, were sacrificed, and the testis and caudal epididymis were immediately removed and transferred into HS solution containing (mM): 135 NaCl, 5 KCl, 2 CaCl2, 1 MgCl2, 30 Hepes, 10 glucose, 10 lactic acid, and 1 pyruvic acid (pH adjusted to 7.4 with NaOH) (Xia et al., 2007). For isolation of spermatids, seminiferous tubules from mouse testicle were dissected out and placed in a […] containing 3 ml of HS medium. The tissue was finely minced and gently triturated with a fire-polished pipette, and the mixture was filtered with a 100 μm nylon cell strainer (BD Falcon, Bedford, Mass.). The dissociated cells were collected in a 1.5 ml plastic tube, and washed once in HS medium by centrifugation at 300 g for 4 min and resuspended in HS medium.
(§2) For isolation of epididymal spermatozoa, three incisions were made to the caudal epididymis, which was incubated in a 1.5-ml tube containing 1 ml of HS medium and 5 mg/ml bovine serum albumin (BSA) in a 5% CO2 incubator at 37° C. for 20 minutes (Xia et al., 2007). Sperm cells released into the medium were collected from top 0.1 ml, which were adjusted to 1×10^7 cells/ml HS medium.
(§3) Mouse spermatogenic cells were loaded with 5 μM acetoxymethylester of Fura-2 (Fora-2/AM) and 80 μg/ml pluronic F127 (Molecular Probes, Eugene, Oreg.) and transferred onto coverslips (22×60 mm, No. 0, Thomas Scientific Co.) for at least 1 hour at room temperature. The coverslip with spermatogenic cells was mounted in a recording chamber and superfused with HS or HS containing tasting compounds or the bitter blocker probenecid (Sigma-Aldrich, St. Louis, Mo.) via a valve controller (VC-8, Warner, USA).
(§4) Imaging of calcium responses was conducted as previously described (Gomez et al, 2005). Stimulation duration was 30 seconds and perfusion rate was 0.8 ml/min. Cells were excited at 340 nm and 380 nm and signals at 510 nm were captured by a cooled CCD camera. The change in fluorescence ratio (F=F340/F380) was recorded for regions-of-interest drawn on the cells.

epididymal sperm cells = experiment: Calcium imaging of mouse epididymal sperm cells with bitter tastants; format: cell-based; settings: for calcium responses from the principal pieces / # CELLS RESPONDED / amplitudes of the responses from the acrosome and midpiece: epididymal sperm; for cells responding with calcium responses: 49 cells; for amplitudes of the responses from the acrosome and midpiece: subcellular areas
Experimental: as §2, §3, §4
(§5) To analyze the dose-dependent calcium responses, the response intensity (FN) was normalized and expressed as ΔF/F0 value: ΔF/F0=(F−F0)/F0. Here F0 is the fluorescence at the beginning of stimulation, i.e., time 0, and F is the peak fluorescence ratio evoked by the stimulation. Dose-response curves and EC50 values were generated based on the normalized responses using the software Origins by nonlinear regression.

human Tas2r38 = human Tas2r38 (Homo sapiens, UniProt P59533); settings: cited from earlier work
mouse spermatids = experiment: Calcium imaging of mouse spermatids with bitter tastants; format: cell-based; settings: for cells responding with increased intracellular calcium: 29 cells; for calcium response in the principal piece: compared with acrosome and midpiece; for increase in intracellular calcium, acrosome versus midpiece: subcellular areas; for number of cells responding: out of 29 cells
Experimental: as §1, §3, §4, §5

C57B/6L wild-type sperm = experiment: Bitter blocker probenecid on calcium responses of wild-type mouse sperm; format: cell-based; settings: 300 μM PTC alone
Experimental: as §3, §4
To confirm whether the germ cells' responses to bitter tastants were mediated by the bitter taste receptors, we examined the effect of the bitter taste receptor blocker probenecid (Greene et al, 2001) and nullification of the α-gustducin gene in Gnat3 α-gustducin knockout mice described in Wong et al, 1996. Probenecid is known to inhibit the responses of human T2R16, 38 and 43 to salicin, PTC and PROP, and aloin, but not that of T2R31 to saccharin (Greene et al, 2011).

[2] = FIG. 6, epididymal sperm Cell 1
[3] = FIG. 6, epididymal sperm Cell 3
[4] = FIG. 6, epididymal sperm Cell 4
[5] = response profile 1, total 49 cells
[6] = response profile 2, total 49 cells
[7] = response profile 3, total 49 cells
[8] = response profile 4, total 49 cells
[9] = response profile 5, total 49 cells
[10] = response profile 7, total 49 cells
[11] = response profile 8, total 49 cells
[12] = response profile 10, total 49 cells
[13] = spermatids, response profile 1, total 29 cells
[14] = spermatids, response profile 3, total 29 cells
[15] = spermatids, response profile 5, total 29 cells
[16] = response profile 6, total 49 cells
[17] = response profile 11, total 49 cells
[18] = spermatids, response profile 2, total 29 cells
[19] = spermatids, response profile 6, total 29 cells
[20] = FIG. 6, epididymal sperm Cell 5
[21] = response profile 9, total 49 cells
[22] = spermatids, response profile 4, total 29 cells

SMILES | calcium response of Gnat3−/− sperm [1] | calcium response of individual cell (epididymal sperm cells; [2]) | calcium response of individual cell (epididymal sperm cells; [4]) | calcium responses from the principal pieces (epididymal sperm cells) | cells responding with calcium responses (epididymal sperm cells; epididymal sperm cells) | # CELLS RESPONDED (epididymal sperm cells; [5]) | # CELLS RESPONDED (epididymal sperm cells; [6]) | # CELLS RESPONDED (epididymal sperm cells; [7]) | # CELLS RESPONDED (epididymal sperm cells; [8]) | # CELLS RESPONDED (epididymal sperm cells; [9]) | # CELLS RESPONDED (epididymal sperm cells; [10]) | # CELLS RESPONDED (epididymal sperm cells; [11]) | amplitudes of the responses from the acrosome and midpiece (epididymal sperm cells) | cells responding with increased intracellular calcium (mouse spermatids; spermatids) | # CELLS RESPONDED (mouse spermatids; [13]) | # CELLS RESPONDED (mouse spermatids; [14]) | # CELLS RESPONDED (epididymal sperm cells; [16]) | calcium response in the principal piece (mouse spermatids; spermatids) | # CELLS RESPONDED (mouse spermatids; [18]) | increase in intracellular calcium, acrosome versus midpiece (mouse spermatids; spermatids) | further results
Nc1ncnc2c1ncn2[C@@H]1O[C@H](COP(=O)(O)OP(=O)(O)OP(=O)(O)O)[C@@H](O)[C@H]1O [ATP] | normal; also recorded: did respond | – | – | – | – | – | – | – | – | – | – | – | – | – | – | – | – | – | – | – | –
CCCc1cc(=O)[nH]c(=S)[nH]1 [PROP, 6-propyl-2 thiouracil] | unresponsive; also recorded: did not respond | responded | responded weakly | mostly undetectable | about 61.2% | 4 | 13 | 1 | 1 | 4 | 1 | 1 | equally strong | 27.6% | 3 | 1 | – | – | – | – | calcium response of individual cell (epididymal sperm cells; [3]): weakly; # CELLS RESPONDED (epididymal sperm cells; [12]): 5; EC50 (human Tas2r38; four responding variants of the receptor): 2 to 4 µM; response of receptor variants (human Tas2r38; two of six variants): unresponsive; EC50 (mouse spermatids; mouse spermatids, Fura-2 calcium imaging, normalized ΔF/F0, read-out: EC50 of calcium response): 24 ± 12 µM; # CELLS RESPONDED (mouse spermatids; [15]): 1; # CELLS RESPONDED (mouse spermatids; spermatids, response profile 9, total 29 cells): 3; calcium response at low concentrations (mouse spermatids; spermatids, 0.01, 0.1 and 1 μM): No responses
NC(=S)Nc1ccccc1 [PTC, N-phenylthiourea] | unresponsive; also recorded: did not respond | responded | – | mostly undetectable | – | 4 | 13 | – | 1 | – | 1 | 1 | equally strong | – | 3 | 1 | 1 | detectable but much smaller | 1 | much larger in the acrosome than in the midpiece | # CELLS RESPONDED (epididymal sperm cells; [17]): 1; increase in the intracellular calcium concentration (C57B/6L wild-type sperm): significant; # CELLS RESPONDED (mouse spermatids; [19]): 1; # CELLS RESPONDED (mouse spermatids; spermatids, response profile 10, total 29 cells): 3
C[C@@H]1C[C@@H]([C@H](O)CC2CC(=O)NC(=O)C2)C(=O)[C@@H](C)C1 [cycloheximide] | did not respond | responded | responded weakly | mostly undetectable | 93.9% | 4 | 13 | 1 | 1 | 4 | 1 | – | equally strong | 62.1% | 3 | 1 | 1 | – | 1 | – | calcium response of individual cell (epididymal sperm cells; FIG. 6, epididymal sperm Cell 2): responded only; calcium response of individual cell (epididymal sperm cells; [3]): responded; calcium response of individual cell (epididymal sperm cells; [20]): responded weakly; number of cells responding (epididymal sperm cells; epididymal sperm cells, out of 49 cells): 46; # CELLS RESPONDED (epididymal sperm cells; [21]): 1; # CELLS RESPONDED (epididymal sperm cells; [12]): 5; # CELLS RESPONDED (epididymal sperm cells; response profile 12, total 49 cells): 15; number of cells responding (mouse spermatids; spermatids): 18; # CELLS RESPONDED (mouse spermatids; [22]): 7; # CELLS RESPONDED (mouse spermatids; [15]): 1; # CELLS RESPONDED (mouse spermatids; spermatids, response profile 7, total 29 cells): 5; calcium response of Gnat3−/− sperm ([1]; listed as cyclohexmide): unresponsive
CC[N+](CC)(CC(=O)Nc1c(C)cccc1C)Cc1ccccc1 [denatonium] | unresponsive; also recorded: did not respond | responded | responded weakly | mostly undetectable | ~53.1% | 4 | 13 | 1 | – | 4 | – | 1 | equally strong | 55.2% | 3 | – | 1 | detectable but much smaller | 1 | much larger in the acrosome than in the midpiece | calcium response of individual cell (epididymal sperm cells; [20]): responded weakly; # CELLS RESPONDED (epididymal sperm cells; [21]): 1; # CELLS RESPONDED (epididymal sperm cells; [17]): 1; # CELLS RESPONDED (mouse spermatids; [22]): 7; # CELLS RESPONDED (mouse spermatids; [19]): 1; # CELLS RESPONDED (mouse spermatids; spermatids, response profile 8, total 29 cells): 4
CCN(CC)CCNC(=O)c1ccc(N)cc1 [procainamide] | – | – | – | – | – | – | – | – | – | – | – | – | – | – | – | – | – | detectable but much smaller | – | much larger in the acrosome than in the midpiece | –
OCc1ccccc1O[C@@H]1O[C@H](CO)[C@@H](O)[C@H](O)[C@H]1O [salicin] | unresponsive; also recorded: did not respond | – | – | – | about 14.3% | 4 | – | 1 | 1 | – | – | – | – | – | – | – | – | – | – | – | frequency of responsive cells (epididymal sperm cells; FIG. 6, epididymal sperm): rare; # CELLS RESPONDED (epididymal sperm cells; response profile 13, total 49 cells): 1; number of cells responding (mouse spermatids; spermatids): No spermatids were found to respond
